According to publication PMC7079008, “Compactness of Protein Folds Alters Disulfide‐Bond Reducibility by Three Orders of Magnitude: A Comprehensive Kinetic Case Study on the Reduction of Differently Sized Tryptophan Cage Model Proteins” (Chembiochem, 2019):
Where a SMILES comes first, the peptide text is derived from it. Bridges are numbered along the chain shown (N, C = ends).

Assay: SS bond reduction by TCEP monitored by 1H NMR
Type: physicochemical
Conditions: 1.7 mM protein, twofold excess of TCEP, 15 °C, pH 7; for TCEP: Elapsed time to steady state / TCEP: k1 / TCEP: t1/2 of reduction: 1H NMR; for TCEP: Conversion rate: 1H NMR Trp Hε1 integrals; for TCEP: k1: parameter estimation; for TCEP: t1/2 of reduction: calculated from k1 (Eq. 12)
Excerpt: The SS bond reduction by TCEP is a bimolecular nucleophilic substitution (SN2) reaction.37 Thus, both the concentration of the oxidized form of the protein [_SS] and that of the RA contribute to the rate of the reduction. In an ideal case, we should consider only nucleophilic attack of the RA (k 1), but, as we explained previously, in practice, we also have to take into account back oxidation (k 2), which takes place simultaneously, and, in some cases, depending on the size and shape of the protein, precipitation (k 3; Figure 5). The mechanism of reduction, therefore, can be described by Equations (2), (3), (4):(2) SS+RAred→k12SH+RAox (3) 2SH+O2→k2SS (4) 2SH→k3SSprecipitated
By fitting this model to the concentration–time functions determined by means of NMR spectroscopy, k 1, k 2, and k 3 can be determined, and half‐lives can be calculated. We focused on the determination of the reduction rate constants k 1; therefore, sampling was more frequent in the reduction phase (stage I; Figure 5 B). Based on parameter estimation (see the Experimental Section), k 2 and k 3 are very often either negligibly small, or, due to a lack of sufficient data, cannot be confidently estimated. Obtaining key kinetic parameters allowed us to describe and compare the reduction kinetics of the SS‐containing miniproteins under various experimental conditions. Some protocols reported in the literature apply extreme conditions, such as high temperature (e.g., 50–80 °C), to obtain short reduction times; this is clearly unsuitable for maintaining the integrity of the protein, or >20‐fold molar excess of reagent. By performing the reduction of E19_SS (0.8 mM) under such conditions (60 °C with 18‐fold TCEP excess), the reaction seemed almost instantaneous (t 1/2<5 min), but the sample became opalescent and side reactions (e.g., precipitation) were instantly detected. Similarly to most globular proteins, the conformational ensemble of E19_2SH at 60 °C is distinctly different from that of 15 °C; thus presenting many more unfolded states. The folded fraction of E19_2SH is 64 % at 15 °C, whereas it is 41 % at 60 °C, according to FUV‐ECD analysis. Instead of intramolecular reoxidation, undesirable intermolecular reoxidation might occur between particles. […] In principle, the reduction rate can be enhanced at lower T by increasing the TCEP molar ratio (15–20‐fold molar excess); however, this also triggers obscure unwanted processes (Figure S5). Experiments were repeated at different temperatures (15, 25, and 37 °C) with 0.8 mM protein and 18‐fold excess of TCEP (Table 2 and Figure S6). The Arrhenius equation allows the activation energy (E a) of the redox reaction to be derived, resulting in a value of about 44.3 kJ mol^−1. For comparison, the activation energy of thiol–disulfide exchange between methylthiolate and oxidized DTT was calculated to be 62 kJ mol^−1.76 Both FUV‐ECD and NMR spectroscopy derived structural information support the high conformational similarity between E19_SS and E19_2SH; therefore, E a is likely to be used for the redox reaction, rather than for the conformational switch between the two conformational states (Table 1). […] Additional experiments were performed to investigate the effect of the protein/RA ratio as a practical perspective (Figure S7). The above‐described NMR spectroscopy methodology provides high‐resolution information about the reduction mechanism, relative to that of the more rapid NUV‐ECD approach, and thus, details of the reduction of all four −SS− protein models were obtained through NMR spectroscopy.
Monitoring reduction kinetics: Peptide samples were prepared between 0.8 and 1.8 mM in 50 mM NaH2PO4–Na2HPO4 buffer (600 μL, pH 6.95), with 10 % D2O. A 0.1 M solution of NaOH was used to set the pH to 7. […]

| SMILES | TCEP: Elapsed time to steady state | TCEP: Conversion rate [%] | TCEP: k1 [M⁻¹ s⁻¹] | TCEP: t1/2 of reduction [min] |
| --- | --- | --- | --- | --- |
| CC[C@H](C)[C@@H]1NC(=O)[C@H](Cc2ccc(O)cc2)NC(=O)[C@H](CC(C)C)NC(=O)[C@H](CCCNC(=N)N)NC(=O)[C@H](C(C)C)NC(=O)[C@@H](N)CSSC[C@@H](C(=O)O)NC(=O)[C@@H]2CCCN2C(=O)[C@@H]2CCCN2C(=O)[C@@H]2CCCN2C(=O)[C@H](CCCNC(=N)N)NC(=O)CNC(=O)[C@H](CO)NC(=O)[C@H](CO)NC(=O)[C@@H]2CCCN2C(=O)CNC(=O)CNC(=O)[C@H](CC(=O)O)NC(=O)[C@H](CCCCN)NC(=O)[C@H](CC(C)C)NC(=O)[C@H](Cc2c[nH]c3ccccc23)NC(=O)[C@H](CCC(N)=O)NC1=O [E2_SS] (H-CVRLYIQWLKDGGPSSGRPPPC-OH; disulfide 1-22) | <5 min | 100 | – | – |
| CC[C@H](C)[C@@H]1NC(=O)[C@H](Cc2ccc(O)cc2)NC(=O)[C@H](CC(C)C)NC(=O)[C@H](CCCNC(=N)N)NC(=O)[C@H](C(C)C)NC(=O)[C@@H](NC(=O)[C@H](CCC(=O)O)NC(=O)[C@H](CCC(=O)O)NC(=O)[C@H](CCC(=O)O)NC(=O)[C@H](CCSC)NC(=O)[C@H](CCC(N)=O)NC(=O)[C@H](CCCCN)NC(=O)[C@H](CO)NC(=O)[C@H](CC(C)C)NC(=O)[C@@H](N)CC(=O)O)CSSC[C@@H](C(=O)O)NC(=O)[C@@H]2CCCN2C(=O)[C@@H]2CCCN2C(=O)[C@@H]2CCCN2C(=O)[C@H](CCCNC(=N)N)NC(=O)CNC(=O)[C@H](CO)NC(=O)[C@H](CO)NC(=O)[C@@H]2CCCN2C(=O)CNC(=O)CNC(=O)[C@H](CC(=O)O)NC(=O)[C@H](CCCCN)NC(=O)[C@H](CC(C)C)NC(=O)[C@H](Cc2c[nH]c3ccccc23)NC(=O)[C@H](CCC(N)=O)NC1=O [E11_SS] (H-DLSKQMEEECVRLYIQWLKDGGPSSGRPPPC-OH; disulfide 10-31) | ≈5–6 h | 94 | 0.0613 | 67 |
| CC[C@H](C)[C@@H]1NC(=O)[C@H](Cc2ccc(O)cc2)NC(=O)[C@H](CC(C)C)NC(=O)[C@H](CCCNC(=N)N)NC(=O)[C@H](C(C)C)NC(=O)[C@@H](NC(=O)[C@H](CCC(=O)O)NC(=O)[C@H](CCC(=O)O)NC(=O)[C@@H](N)CCC(=O)O)CSSC[C@@H](C(=O)O)NC(=O)[C@@H]2CCCN2C(=O)[C@@H]2CCCN2C(=O)[C@@H]2CCCN2C(=O)[C@H](CCCNC(=N)N)NC(=O)CNC(=O)[C@H](CO)NC(=O)[C@H](CO)NC(=O)[C@@H]2CCCN2C(=O)CNC(=O)CNC(=O)[C@H](CC(=O)O)NC(=O)[C@H](CCCCN)NC(=O)[C@H](CC(C)C)NC(=O)[C@H](Cc2c[nH]c3ccccc23)NC(=O)[C@H](CCC(N)=O)NC1=O [E5_SS] (H-EEECVRLYIQWLKDGGPSSGRPPPC-OH; disulfide 4-25) | ≈1 h | 93 | 0.308 | 14 |
